Results reported in US20080193913A1, “Diluent, methods of manufacture and use” (Millipore Corporation, priority 2002, published 2008).

Test: Non-specific drug binding (NSB) to 96-well plates, drug in phosphate buffer
Type: physicochemical
Conditions: time course study on PP and PTFE plates using LC-MS (data not shown)
Procedure: The drug NSB (10 nM drug in phosphate buffer) to other 96-well plates made from different plastics was also tested.

CC(=O)O[C@H]1C(=O)[C@@]2(C)[C@H]([C@H](OC(=O)c3ccccc3)[C@]3(O)C[C@H](OC(=O)[C@H](O)[C@@H](NC(=O)c4ccccc4)c4ccccc4)C(C)=C1C3(C)C)[C@]1(OC(C)=O)CO[C@@H]1C[C@@H]2O [taxol]
drug NSB, dependence on plate material: independent of plate material

C[C@]12CC[C@H]3[C@@H](CCC4=CC(=O)CC[C@@]43C)[C@@H]1CC[C@@H]2O [testosterone]
drug NSB, dependence on plate material: independent of plate material
